The source of these data is patent publication US20230322837A1, “PREPARATION METHOD FOR AND APPLICATION OF CLASS OF STELLATE BIFUNCTIONAL COMPOUNDS TARGETING SPIKE PROTEIN AGAINST RESPIRATORY TRACT INFECTION VIRUS AND SALT THEREOF” (priority 2020, published 2023).

Assay [1] has as its system plasma coagulation. Particulars: in vitro, rabbit platelet poor plasma, x±s, n = 3. Here is the method: (§1) Coagulation is a complex process involving a series of coagulation factors, which essentially include two pathways, “intrinsic coagulation pathway” and “extrinsic coagulation pathway”. Activated partial thromboplastin time (APTT), prothrombin time (PT), and thrombin time (TT) are adopted usually in the laboratory to evaluate the anticoagulant effect.
(§2) New Zealand rabbits were anaesthetized with chloral hydrate, heart puncture was conducted to collect blood into an anticoagulant tube containing ⅒ vol 3.8% sodium citrate, followed by centrifuging at 3000 rpm for 15 min, supernatant was collected to obtain platelet poor plasma which was stored in a refrigerator for later use.
(§3) The compounds were prepared with DMSO to obtain stock solutions with a concentration of 10 mM. Samples to be tested were diluted with normal saline during the test, with a final concentration of 50 µM, 12.5 µM, 3.13 µM, 0.78 µM, 0.20 µM, and 0.05 µM.
PT Assay: 50 µL of plasma was mixed well with 20 µL of samples to be tested respectively, the mixture was pre-heated at 37° C. for 2 min, followed by incubation at 37° C. for 3 min, and addition of 100 µL of PT reagent. The mixture was mixed well and tested to record the coagulation time.
(§4) One-way analysis of variance (One-Way ANOVA) was performed for multi-group comparison; pairwise comparison for means among groups was performed, with Dunnett’s multiple comparisons test in case of homogeneity of variance, and Dunnett’s T3 multiple comparisons test in case of heterogeneity of variance. P <0.05 means statistical significance.

In assay [2] the test system is plasma coagulation. As to conditions: in vitro, rabbit platelet poor plasma, x±s, n = 3. The method, then:
as §1, §2, §3
TT Assay: 100 µL of prepared plasma was mixed well with 50 µL of the sample mixture to be tested, and pre-heated at 37° C. for 2 min, followed by addition of 50 µL of TT reagent to the mixture and detection to record results of the instrument.
as §4
This is another data set of the same source.

Assay [3] concerns plasma coagulation. As to conditions: for APTT: in vitro, rabbit platelet poor plasma, x±s, n = 3. Here is the method:
as §1, §2, §3
APTT Assay: 100 µL of plasma was mixed well with 50 µL of samples to tested respectively, the mixture was pre-heated at 37° C. for 2 min, then 50 µL of APTT reagent was added, followed by incubation at 37° C. for 3 min, addition of 50 µL of 0.025 mol/L CaCl2, and detection on an automatic blood coagulation analyzer to record the coagulation time.
as §4

Assay [4] concerns Lentivirus-NC virus infection of H1299 cells. As to conditions: different virus titers (MOI 5, 10, 20), FIGS. 7 and 9. Here is the method: H1299 Human lung cancer cells, cultured with RPMI-1640 10% fetal bovine serum in an incubator with 5% CO2 and saturated humidity at 37° C. • RPMI-1640 + 10% Fetal Bovine Serum • PBS (Life Science Products&Services) • Trypsin-EDTA Solution (Gibco) • 24-well plate (Corning) • Lentivirus-NC virus solution (GenePharma, 1×10^9 TU/mL)
Principles and procedures for virus infection experiment • 1.

Where two headings read alike, the source gives them in different places.

As to `O=C(O)CC1OC(O)C(OC(=O)c2cc(O)c(O)c(O)c2)C(OC(=O)c2cc(O)c(O)c(O)c2)C1OC(=O)c1cc(O)c(O)c(O)c1` (stereo not shown) [Compound 6], the PT in the assay with plasma coagulation [1] (0.05 µM) was determined as 9.76 ± 0.85 s; with plasma coagulation [1] (0.20 µM), 10.11 ± 0.30 s; in the assay with plasma coagulation [1] (0.78 µM), 10.54 ± 0.37 s; in the assay on plasma coagulation [1] (3.13 µM), 12.83 ± 0.19 s; with plasma coagulation [1] (12.50 µM) it was 13.73 ± 0.17 s; in the assay on plasma coagulation [1] (50.00 µM), 16.66 ± 0.45 s. For the same compound, the TT in the assay on plasma coagulation [2] (0.05 µM) was 23.35 ± 0.31 s; in the assay on plasma coagulation [2] (0.20 µM), 22.90 ± 0.09 s; in the assay with plasma coagulation [2] (0.78 µM), 23.95 ± 0.07 s; in the assay on plasma coagulation [2] (3.13 µM) it was 25.25 ± 0.27 s; with plasma coagulation [2] (12.50 µM), 28.89 ± 0.68 s; in the assay with plasma coagulation [2] (50.00 µM), 38.87 ± 0.77 s. In the assay with plasma coagulation [3] (dose gradients 50.00, 12.50, 3.13, 0.78, 0.20, 0.05 (printed µL), covers APTT, PT and TT), the “inhibition of plasma coagulation (coagulation indexes APTT, PT, and TT)” value was “dose-dependently inhibit plasma coagulation”. Besides, the APTT came out at 20.12 ± 0.09 s with plasma coagulation [3] (0.05 µM); 24.03 ± 1.05 s in the assay on plasma coagulation [3] (0.20 µM); 26.84 ± 0.79 s in the assay with plasma coagulation [3] (0.78 µM); 37.72 ± 1.83 s in the assay with plasma coagulation [3] (3.13 µM); 75.11 ± 2.58 s in the assay on plasma coagulation [3] (12.50 µM); 106.51 ± 0.94 s in the assay on plasma coagulation [3] (50.00 µM). Further, the “inhibition of virus infection in cells” value in assay [4] (20 µM concentration) is listed as “significantly inhibit virus infection in cells”.

For `O=C(Oc1ccc(-c2coc3c(OC(=O)c4cc(O)c(O)c(O)c4)cc(OC(=O)c4cc(O)c(O)c(O)c4)c(OC(=O)c4cc(O)c(O)c(O)c4)c3c2=O)cc1)c1cc(O)c(O)c(O)c1` [Compound 4], the “inhibition of virus infection in cells” value in assay [4] (10 µM concentration) is recorded as “significantly inhibited virus infection in cells”; in assay [4] (20 µM concentration), “significantly inhibit virus infection in cells”.
